# From ChEMBL document CHEMBL4422610, “HDAC as onco target: Reviewing the synthetic approaches with SAR study of their inhibitors” (Eur J Med Chem, 2018)
# Key:
# A549 = assay: cells; settings: Homo sapiens
# MCF7 [1] = assay: cells; settings: Homo sapiens
# MKN-45 = assay: cells; settings: Homo sapiens
# Histone deacetylase 1 [2] = biological target: T1, Histone deacetylase 1 (Homo sapiens, UniProt Q13547); assay: Inhibition of recombinant human FLAG/His-tagged HDAC1 expressed in baculovirus expression system using Boc-l-Lys(Ac)-AMC as substrate preincubated up to 3 hrs and measured after 35 mins by fluorescence assay
# T1 sequence (Q13547 whole entry, the tested form may be a part): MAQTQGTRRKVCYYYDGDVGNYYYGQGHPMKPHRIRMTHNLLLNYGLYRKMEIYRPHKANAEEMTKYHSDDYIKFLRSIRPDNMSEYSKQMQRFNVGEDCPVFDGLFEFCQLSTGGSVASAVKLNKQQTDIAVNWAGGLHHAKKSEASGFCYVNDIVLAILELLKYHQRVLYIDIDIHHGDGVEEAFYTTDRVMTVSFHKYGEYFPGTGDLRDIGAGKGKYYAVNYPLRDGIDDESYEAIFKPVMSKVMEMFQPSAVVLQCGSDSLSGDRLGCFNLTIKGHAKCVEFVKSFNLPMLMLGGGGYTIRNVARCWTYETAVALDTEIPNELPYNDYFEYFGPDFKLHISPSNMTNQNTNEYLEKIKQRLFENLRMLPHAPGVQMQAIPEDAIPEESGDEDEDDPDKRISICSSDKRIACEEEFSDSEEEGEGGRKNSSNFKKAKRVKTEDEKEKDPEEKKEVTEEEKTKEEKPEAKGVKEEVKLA
# [3] = biological target: Histone deacetylase 3/Nuclear receptor corepressor 2 (HDAC3/NCoR2) (Homo sapiens) (UniProt O15379+Q9Y618); assay: Inhibition of human recombinant full length C-terminal His-tagged HDAC3 (1 to 428 residues)/N-terminal GST-tagged NCOR2 (395 to 489 residues) expressed in insect cells using Boc-l-Lys(Ac)-AMC as substrate preincubated up to 3 hrs and measured after 35 mins by fluorescence assay
# [4] = biological target: Protein deacetylase HDAC6 (Homo sapiens) (UniProt Q9UBN7); assay: Inhibition of human HDAC6 at 100 uM relative to control
# Histone deacetylase 8 [5] = biological target: T2, Histone deacetylase 8 (Homo sapiens, UniProt Q9BY41); assay: Inhibition of human HDAC8 using ZMTFAL as substrate measured after 90 mins by fluorescence assay
# T2 sequence (Q9BY41 whole entry): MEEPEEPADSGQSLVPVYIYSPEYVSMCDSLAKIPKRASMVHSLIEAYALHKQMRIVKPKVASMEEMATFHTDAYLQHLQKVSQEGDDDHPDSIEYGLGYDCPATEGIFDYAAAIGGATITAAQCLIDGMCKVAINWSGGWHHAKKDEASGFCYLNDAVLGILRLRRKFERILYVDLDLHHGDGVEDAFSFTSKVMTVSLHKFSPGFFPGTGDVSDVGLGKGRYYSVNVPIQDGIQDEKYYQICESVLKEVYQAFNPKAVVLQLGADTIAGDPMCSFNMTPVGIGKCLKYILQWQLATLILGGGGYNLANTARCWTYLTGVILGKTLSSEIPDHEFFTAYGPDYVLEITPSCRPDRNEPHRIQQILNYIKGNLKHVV
# MCF7 [6] = assay: cells; assay type: functional, cell-based; settings: Homo sapiens
# Vero = assay: cells; assay type: ADME, cell-based; settings: Chlorocebus sabaeus
# RWPE-1 = assay: cells; assay type: ADME, cell-based; settings: Homo sapiens
# PC-3 = assay: cells; assay type: functional, cell-based; settings: Homo sapiens
# MDA-MB-231 = assay: cells; settings: Homo sapiens
# Histone deacetylase 1 [7] = biological target: T1, Histone deacetylase 1; assay: Inhibition of human HDAC1 using fluorogenic HDAC substrate
# Histone deacetylase 4 = Histone deacetylase 4 (Homo sapiens, UniProt P56524); assay: Inhibition of human HDAC4 using fluorogenic HDAC substrate
# Histone deacetylase 4, sequence (P56524 whole entry): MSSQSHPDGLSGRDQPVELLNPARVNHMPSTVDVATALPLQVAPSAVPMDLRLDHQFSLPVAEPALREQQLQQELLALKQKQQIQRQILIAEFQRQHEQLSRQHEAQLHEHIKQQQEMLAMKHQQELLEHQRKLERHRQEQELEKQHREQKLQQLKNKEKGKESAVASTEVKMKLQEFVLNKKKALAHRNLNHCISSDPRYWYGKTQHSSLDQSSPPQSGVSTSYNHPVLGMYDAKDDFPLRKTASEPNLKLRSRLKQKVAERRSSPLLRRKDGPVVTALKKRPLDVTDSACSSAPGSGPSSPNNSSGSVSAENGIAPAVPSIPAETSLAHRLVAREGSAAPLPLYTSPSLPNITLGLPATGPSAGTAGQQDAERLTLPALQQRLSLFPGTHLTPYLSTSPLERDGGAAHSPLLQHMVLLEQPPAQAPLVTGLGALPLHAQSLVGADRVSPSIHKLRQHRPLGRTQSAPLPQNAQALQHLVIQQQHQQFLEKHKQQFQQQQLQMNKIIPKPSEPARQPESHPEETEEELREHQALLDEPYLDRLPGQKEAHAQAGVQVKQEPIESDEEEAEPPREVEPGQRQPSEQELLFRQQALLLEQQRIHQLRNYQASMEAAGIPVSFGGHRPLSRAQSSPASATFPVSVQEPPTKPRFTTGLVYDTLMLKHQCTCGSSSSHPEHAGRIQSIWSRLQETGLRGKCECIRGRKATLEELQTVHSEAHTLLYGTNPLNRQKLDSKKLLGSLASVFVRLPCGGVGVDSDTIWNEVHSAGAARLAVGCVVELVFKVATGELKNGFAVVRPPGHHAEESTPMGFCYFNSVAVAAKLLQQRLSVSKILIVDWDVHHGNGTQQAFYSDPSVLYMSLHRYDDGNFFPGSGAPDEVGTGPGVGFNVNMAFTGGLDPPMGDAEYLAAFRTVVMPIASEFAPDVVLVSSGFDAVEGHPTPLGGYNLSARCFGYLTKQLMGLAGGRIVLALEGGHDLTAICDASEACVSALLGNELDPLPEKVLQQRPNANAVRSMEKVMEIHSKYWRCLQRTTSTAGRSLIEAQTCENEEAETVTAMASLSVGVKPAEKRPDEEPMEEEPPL
# Histone deacetylase 5 = Histone deacetylase 5 (Homo sapiens, UniProt Q9UQL6); assay: Inhibition of human HDAC5 using fluorogenic HDAC substrate
# Histone deacetylase 5, sequence (Q9UQL6 whole entry): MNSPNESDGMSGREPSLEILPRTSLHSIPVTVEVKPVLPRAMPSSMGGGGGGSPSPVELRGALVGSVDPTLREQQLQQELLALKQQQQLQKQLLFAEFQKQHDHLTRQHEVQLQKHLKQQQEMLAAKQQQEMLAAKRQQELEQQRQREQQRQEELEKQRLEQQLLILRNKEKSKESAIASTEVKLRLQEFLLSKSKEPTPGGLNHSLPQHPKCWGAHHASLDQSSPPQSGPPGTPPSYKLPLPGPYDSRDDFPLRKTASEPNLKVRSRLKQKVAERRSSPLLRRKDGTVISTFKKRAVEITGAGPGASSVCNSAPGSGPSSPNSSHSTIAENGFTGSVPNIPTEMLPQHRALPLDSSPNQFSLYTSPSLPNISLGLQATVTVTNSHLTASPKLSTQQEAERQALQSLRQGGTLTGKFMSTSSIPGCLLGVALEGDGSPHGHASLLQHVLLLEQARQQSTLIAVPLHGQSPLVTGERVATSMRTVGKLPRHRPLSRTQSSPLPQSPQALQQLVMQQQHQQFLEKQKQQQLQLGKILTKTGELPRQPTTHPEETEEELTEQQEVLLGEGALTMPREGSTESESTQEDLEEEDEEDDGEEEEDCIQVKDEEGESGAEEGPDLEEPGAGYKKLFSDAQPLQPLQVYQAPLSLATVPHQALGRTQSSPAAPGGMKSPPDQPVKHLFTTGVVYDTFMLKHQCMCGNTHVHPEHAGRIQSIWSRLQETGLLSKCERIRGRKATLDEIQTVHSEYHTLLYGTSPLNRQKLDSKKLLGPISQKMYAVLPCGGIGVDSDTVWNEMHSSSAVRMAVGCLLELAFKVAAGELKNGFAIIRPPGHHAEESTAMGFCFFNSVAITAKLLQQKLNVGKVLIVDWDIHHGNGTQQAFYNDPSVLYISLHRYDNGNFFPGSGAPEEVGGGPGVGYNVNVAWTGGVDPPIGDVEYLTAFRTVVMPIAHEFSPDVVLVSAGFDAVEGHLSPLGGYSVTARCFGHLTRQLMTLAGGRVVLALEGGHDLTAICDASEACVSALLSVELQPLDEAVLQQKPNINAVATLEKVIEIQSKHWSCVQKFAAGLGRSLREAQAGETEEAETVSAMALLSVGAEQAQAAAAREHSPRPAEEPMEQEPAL
# [8] = biological target: T3, Protein deacetylase HDAC6 (Homo sapiens, UniProt Q9UBN7); assay: Inhibition of human HDAC6 using fluorogenic HDAC substrate
# T3 sequence (Q9UBN7 whole entry): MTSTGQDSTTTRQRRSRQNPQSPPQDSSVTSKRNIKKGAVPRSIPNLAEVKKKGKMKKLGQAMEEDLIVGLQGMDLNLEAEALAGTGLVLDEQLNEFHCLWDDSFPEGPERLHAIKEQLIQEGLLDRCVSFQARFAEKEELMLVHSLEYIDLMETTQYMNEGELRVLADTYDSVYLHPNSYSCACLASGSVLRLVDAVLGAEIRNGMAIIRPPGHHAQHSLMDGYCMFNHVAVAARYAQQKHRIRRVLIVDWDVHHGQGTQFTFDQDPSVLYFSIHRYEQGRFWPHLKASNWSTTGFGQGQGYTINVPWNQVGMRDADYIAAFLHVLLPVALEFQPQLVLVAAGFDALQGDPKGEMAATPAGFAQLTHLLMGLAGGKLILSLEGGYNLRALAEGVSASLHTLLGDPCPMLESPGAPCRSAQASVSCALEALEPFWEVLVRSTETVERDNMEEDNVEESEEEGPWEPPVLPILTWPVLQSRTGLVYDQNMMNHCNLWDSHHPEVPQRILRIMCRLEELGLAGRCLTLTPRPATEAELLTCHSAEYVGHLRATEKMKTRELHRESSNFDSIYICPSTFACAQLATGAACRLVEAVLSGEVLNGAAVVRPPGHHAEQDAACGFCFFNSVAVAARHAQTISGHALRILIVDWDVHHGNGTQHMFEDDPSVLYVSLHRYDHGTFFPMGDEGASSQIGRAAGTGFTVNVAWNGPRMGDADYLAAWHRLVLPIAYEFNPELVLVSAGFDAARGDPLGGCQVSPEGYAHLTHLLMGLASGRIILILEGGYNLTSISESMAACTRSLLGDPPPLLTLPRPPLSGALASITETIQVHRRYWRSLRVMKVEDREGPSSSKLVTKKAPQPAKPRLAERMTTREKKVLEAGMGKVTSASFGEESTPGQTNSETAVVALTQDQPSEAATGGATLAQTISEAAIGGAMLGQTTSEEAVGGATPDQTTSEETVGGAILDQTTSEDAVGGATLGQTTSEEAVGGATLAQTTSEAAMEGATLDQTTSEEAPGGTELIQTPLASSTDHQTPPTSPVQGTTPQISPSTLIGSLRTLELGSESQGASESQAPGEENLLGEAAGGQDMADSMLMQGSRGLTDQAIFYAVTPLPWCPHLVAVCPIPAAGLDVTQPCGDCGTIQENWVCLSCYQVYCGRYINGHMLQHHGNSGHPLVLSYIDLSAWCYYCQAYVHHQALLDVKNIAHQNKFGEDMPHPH
# Histone deacetylase 7 = biological target: T4, Histone deacetylase 7 (Homo sapiens, UniProt Q8WUI4); assay: Inhibition of human HDAC7 using fluorogenic HDAC substrate
# T4 sequence (Q8WUI4 whole entry): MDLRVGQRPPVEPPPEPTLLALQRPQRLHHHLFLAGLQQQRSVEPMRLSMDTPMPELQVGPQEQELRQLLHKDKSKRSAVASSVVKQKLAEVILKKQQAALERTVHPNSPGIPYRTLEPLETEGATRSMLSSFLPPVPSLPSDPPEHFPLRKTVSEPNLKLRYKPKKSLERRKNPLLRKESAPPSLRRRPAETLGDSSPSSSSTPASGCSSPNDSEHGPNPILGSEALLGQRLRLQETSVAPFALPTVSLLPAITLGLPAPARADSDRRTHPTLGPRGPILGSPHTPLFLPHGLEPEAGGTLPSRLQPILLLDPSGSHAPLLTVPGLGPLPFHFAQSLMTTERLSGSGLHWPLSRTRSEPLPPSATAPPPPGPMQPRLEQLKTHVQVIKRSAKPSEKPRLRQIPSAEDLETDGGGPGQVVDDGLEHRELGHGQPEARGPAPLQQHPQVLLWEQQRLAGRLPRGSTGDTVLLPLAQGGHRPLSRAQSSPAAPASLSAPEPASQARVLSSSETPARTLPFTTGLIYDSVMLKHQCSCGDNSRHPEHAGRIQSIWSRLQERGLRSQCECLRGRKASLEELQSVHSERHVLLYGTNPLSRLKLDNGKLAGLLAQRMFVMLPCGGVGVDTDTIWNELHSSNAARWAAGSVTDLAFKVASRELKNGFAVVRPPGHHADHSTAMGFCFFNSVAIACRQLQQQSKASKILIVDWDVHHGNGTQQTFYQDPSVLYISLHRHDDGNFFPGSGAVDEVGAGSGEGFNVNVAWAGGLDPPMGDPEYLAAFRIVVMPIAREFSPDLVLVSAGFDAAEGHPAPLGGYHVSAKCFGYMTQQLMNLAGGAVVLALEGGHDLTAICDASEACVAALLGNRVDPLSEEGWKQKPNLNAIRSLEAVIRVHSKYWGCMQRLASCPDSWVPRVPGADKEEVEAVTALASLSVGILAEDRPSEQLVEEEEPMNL
# Histone deacetylase 8 [9] = biological target: T2, Histone deacetylase 8; assay: Inhibition of human HDAC8 using fluorogenic HDAC substrate
# Histone deacetylase 9 = Histone deacetylase 9 (Homo sapiens, UniProt Q9UKV0); assay: Inhibition of human HDAC9 using fluorogenic HDAC substrate
# Histone deacetylase 9, sequence (Q9UKV0 whole entry): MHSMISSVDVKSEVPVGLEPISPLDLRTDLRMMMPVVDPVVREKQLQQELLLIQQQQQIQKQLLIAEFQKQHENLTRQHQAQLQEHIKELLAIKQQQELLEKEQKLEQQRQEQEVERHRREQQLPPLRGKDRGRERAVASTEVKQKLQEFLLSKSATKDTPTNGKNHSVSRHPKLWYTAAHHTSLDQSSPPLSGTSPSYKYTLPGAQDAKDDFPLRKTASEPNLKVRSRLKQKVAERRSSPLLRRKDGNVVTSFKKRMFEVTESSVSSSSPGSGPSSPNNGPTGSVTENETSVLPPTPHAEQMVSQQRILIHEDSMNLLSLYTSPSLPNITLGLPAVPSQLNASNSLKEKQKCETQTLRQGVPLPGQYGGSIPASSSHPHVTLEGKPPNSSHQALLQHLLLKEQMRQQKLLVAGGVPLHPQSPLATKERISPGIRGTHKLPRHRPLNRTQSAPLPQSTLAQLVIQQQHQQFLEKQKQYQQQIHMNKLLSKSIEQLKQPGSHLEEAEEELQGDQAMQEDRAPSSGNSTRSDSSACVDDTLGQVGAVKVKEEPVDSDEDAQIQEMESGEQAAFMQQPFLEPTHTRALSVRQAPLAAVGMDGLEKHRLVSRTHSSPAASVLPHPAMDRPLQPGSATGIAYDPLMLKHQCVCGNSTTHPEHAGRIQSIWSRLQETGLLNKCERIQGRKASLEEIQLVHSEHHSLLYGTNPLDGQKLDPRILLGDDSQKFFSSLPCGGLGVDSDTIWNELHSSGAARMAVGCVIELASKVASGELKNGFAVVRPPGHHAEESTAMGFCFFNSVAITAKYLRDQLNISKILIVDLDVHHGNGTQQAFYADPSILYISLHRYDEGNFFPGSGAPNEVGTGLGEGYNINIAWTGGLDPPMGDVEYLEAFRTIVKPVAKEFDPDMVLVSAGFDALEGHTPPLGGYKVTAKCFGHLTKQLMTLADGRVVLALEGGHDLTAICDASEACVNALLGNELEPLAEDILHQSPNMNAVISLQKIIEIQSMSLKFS
# [10] = biological target: T5, Polyamine deacetylase HDAC10 (Homo sapiens, UniProt Q969S8); assay: Inhibition of human HDAC10 using fluorogenic HDAC substrate
# T5 sequence (Q969S8 whole entry): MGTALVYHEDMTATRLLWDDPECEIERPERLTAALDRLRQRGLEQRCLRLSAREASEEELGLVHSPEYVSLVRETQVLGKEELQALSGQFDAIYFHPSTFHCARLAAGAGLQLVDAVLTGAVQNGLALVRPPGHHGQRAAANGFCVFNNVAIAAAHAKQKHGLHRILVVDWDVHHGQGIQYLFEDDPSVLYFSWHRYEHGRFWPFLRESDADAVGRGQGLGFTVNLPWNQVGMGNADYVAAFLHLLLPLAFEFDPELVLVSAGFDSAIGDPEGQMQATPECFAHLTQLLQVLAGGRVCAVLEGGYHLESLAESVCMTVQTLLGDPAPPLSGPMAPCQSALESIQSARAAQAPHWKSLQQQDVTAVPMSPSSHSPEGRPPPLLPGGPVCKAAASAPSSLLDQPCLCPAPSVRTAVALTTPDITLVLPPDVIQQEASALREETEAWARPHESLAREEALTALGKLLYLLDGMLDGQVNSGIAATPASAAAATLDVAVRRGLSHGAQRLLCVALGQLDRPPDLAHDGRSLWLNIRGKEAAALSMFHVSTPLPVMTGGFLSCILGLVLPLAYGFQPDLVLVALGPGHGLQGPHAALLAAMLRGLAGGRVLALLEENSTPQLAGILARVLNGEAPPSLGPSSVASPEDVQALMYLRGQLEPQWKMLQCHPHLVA
# Histone deacetylase 11 = biological target: T6, Histone deacetylase 11 (Homo sapiens, UniProt Q96DB2); assay: Inhibition of human HDAC11 using fluorogenic HDAC substrate
# T6 sequence (Q96DB2 whole entry): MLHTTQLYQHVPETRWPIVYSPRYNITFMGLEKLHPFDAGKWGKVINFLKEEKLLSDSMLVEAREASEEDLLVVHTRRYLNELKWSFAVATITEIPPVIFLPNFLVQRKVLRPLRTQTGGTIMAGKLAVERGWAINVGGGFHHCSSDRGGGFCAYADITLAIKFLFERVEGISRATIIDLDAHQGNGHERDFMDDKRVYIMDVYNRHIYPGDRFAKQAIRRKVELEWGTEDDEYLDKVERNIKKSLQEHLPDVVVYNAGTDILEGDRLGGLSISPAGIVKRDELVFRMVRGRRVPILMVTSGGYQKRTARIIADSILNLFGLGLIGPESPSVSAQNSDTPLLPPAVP
# Histone deacetylase 1 [11] = biological target: T1, Histone deacetylase 1; assay: Inhibition of HDAC1 (unknown origin) using (FAM)-labeled acetylated peptide as substrate measured after 17 hrs by fluorescence assay
# Histone deacetylase 2 = Histone deacetylase 2 (Homo sapiens, UniProt Q92769)
# Histone deacetylase 2, sequence (Q92769 whole entry): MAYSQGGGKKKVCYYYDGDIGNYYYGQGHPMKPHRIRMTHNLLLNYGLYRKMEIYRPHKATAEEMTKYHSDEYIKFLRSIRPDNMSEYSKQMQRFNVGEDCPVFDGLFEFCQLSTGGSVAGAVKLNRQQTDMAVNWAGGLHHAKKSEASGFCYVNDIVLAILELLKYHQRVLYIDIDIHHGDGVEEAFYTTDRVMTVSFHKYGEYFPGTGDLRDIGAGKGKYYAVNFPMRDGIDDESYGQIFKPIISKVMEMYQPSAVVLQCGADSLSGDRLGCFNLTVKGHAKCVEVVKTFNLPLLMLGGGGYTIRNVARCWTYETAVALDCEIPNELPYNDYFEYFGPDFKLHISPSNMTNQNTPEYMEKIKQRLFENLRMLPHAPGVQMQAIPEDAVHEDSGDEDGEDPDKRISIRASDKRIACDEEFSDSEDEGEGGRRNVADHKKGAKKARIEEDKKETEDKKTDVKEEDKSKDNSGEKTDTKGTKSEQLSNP
# Histone deacetylase 8 [12] = biological target: T2, Histone deacetylase 8; assay: Inhibition of HDAC8 (unknown origin) using (FAM)-labeled acetylated peptide as substrate measured after 17 hrs by fluorescence assay
# [13] = biological target: T5, Polyamine deacetylase HDAC10; assay: Inhibition of HDAC10 (unknown origin) using (FAM)-labeled acetylated peptide as substrate measured after 17 hrs by fluorescence assay
# [14] = biological target: T3, Protein deacetylase HDAC6; assay: Inhibition of HDAC6 (unknown origin) using (FAM)-labeled acetylated peptide as substrate measured after 17 hrs by fluorescence assay
# Histone deacetylase [15] = assay type: cell-based, Homo sapiens; settings: hela
# Histone deacetylase [16] = assay type: cell-based, Homo sapiens; settings: hela; remark: listed apart in the source
# Histone deacetylase 1 [17] = biological target: T1, Histone deacetylase 1; assay: Inhibition of recombinant human GST-fused HDAC1 expressed in HEK293 cells Fluor-de-lys as substrate measured after 60 mins by fluorescence assay
# [18] = biological target: T3, Protein deacetylase HDAC6; assay: Inhibition of recombinant human His-tagged HDAC6 expressed in baculovirus infected insect cells using Fluor-de-lys as substrate measured after 60 mins by fluorescence assay
smiles,measurement,setting,value
CCCCCCC[C@H](OC(=O)[C@@H](CCCCN(O)C=O)NC(=O)c1nc(-c2cc(OC)ccc2O)oc1C)C(C)(C)C(=O)N[C@H]1CCCCN(O)C1=O [AMAMISTATIN A],IC50,A549,0.56 µM
same,IC50,MCF7 [1],0.48 µM
same,IC50,MKN-45,0.24 µM
O=C(Nc1cc(-c2ccccc2)ccc1O)c1c(-c2ccc(O)cc2)sc2cc(O)ccc12,inhibition,Histone deacetylase 1 [2],21 to 34%
same,inhibition,[3],< 12%
O=C(NO)c1ccc(NC(=S)N/N=C/c2ccc(F)cc2)cc1,inhibition,[4],23%
same,IC50,Histone deacetylase 8 [5],19.7 µM
CC1(C)C(=O)N(c2ccc(C#N)c(C(F)(F)F)c2)C(=O)N1Cc1ccc(-c2cn(CCCCCCC(=O)NO)nn2)cc1,IC50,MCF7 [6],4.24 µM
same,IC50,Vero,11 µM
same,IC50,RWPE-1,0.48 µM
same,IC50,PC-3,3.31 µM
same,IC50,MDA-MB-231,1.45 µM
O=C(NO)c1ccc(NC(=S)N/N=C/c2ccccc2)cc1,inhibition,[4],30%
same,IC50,Histone deacetylase 8 [5],27.6 µM
O=C(NO)c1ccc(CN2c3ccccc3C[C@@H]3CCCC[C@H]32)cc1,IC50,Histone deacetylase 1 [7],> 30 µM
same,IC50,Histone deacetylase 4,> 30 µM
same,IC50,Histone deacetylase 5,27 µM
same,IC50,[8],0.036 µM
same,IC50,Histone deacetylase 7,> 30 µM
same,IC50,Histone deacetylase 8 [9],5.3 µM
same,IC50,Histone deacetylase 9,25 µM
same,IC50,[10],> 30 µM
same,IC50,Histone deacetylase 11,1.5 µM
Nc1ccccc1NC(=O)CCCCCCC(=O)Nc1ccc(-c2cn(Cc3ccccc3)nn2)cc1,IC50,Histone deacetylase 1 [11],> 30 µM
same,IC50,Histone deacetylase 2,> 30 µM
same,IC50,Histone deacetylase 8 [12],> 30 µM
same,IC50,[13],> 30 µM
same,IC50,[14],> 30 µM
Nc1cccc(-c2csc(NC(=O)CCCCCCC(=O)Nc3ccccc3N)n2)c1,IC50,Histone deacetylase 1 [11],2.49 µM
same,IC50,Histone deacetylase 2,0.147 µM
same,IC50,Histone deacetylase 8 [12],> 30 µM
same,IC50,[13],2.91 µM
same,IC50,[14],> 30 µM
CCn1cnc(-c2ccccc2)c1-c1ccc(/C=C/C(=O)NO)cc1,IC50,Histone deacetylase [15],0.234 µM
same,IC50,Histone deacetylase [16],0.132 µM
same,IC50,Histone deacetylase 1 [17],0.028 µM
same,IC50,[18],0.107 µM
CC1(C)C(=O)N(c2ccc(C#N)c(C(F)(F)F)c2)C(=O)N1CCCCc1cn(CCCCCCC(=O)NO)nn1,IC50,MCF7 [6],14.6 µM
same,IC50,Vero,> 20 µM
same,IC50,RWPE-1,12.1 µM
same,IC50,PC-3,15.7 µM
same,IC50,MDA-MB-231,> 20 µM
